Patent publication US12545637B2, “Extrahepatic targeted cationic lipid compound with high efficiency and low toxicity and its composition” (BEIJING YOUCARE KECHUANG PHARMACEUTICAL TECHNOLOGY CO., LTD., priority 2023, dated 2026)

Tests used:
[1] = Particle size and polydispersity index (PDI) of lipid nanoparticles by dynamic light scattering; format: physicochemical
Description: The particle size and polydispersity index (PDI) were determined by dynamic light scattering using Malvern laser particle size analyzer.
10 μL of the liposome solution was weighed, diluted to 1 mL with RNase-free deionized water, and added to the sample pool. Each sample was measured in triplicate. The measurement conditions were: […] scattering angle, and 25° C.

293T cells [2] = test: Fluorescent detection of Fluc-mRNA (cell transfection efficiency of LNP formulations); format: cell-based
293T cells [3] = test: as above; format: cell-based; remark: listed apart in the source
293T cells [4] = test: Cell transfection test of LNP formulation of eGFP-mRNA (optimization of preparation conditions); format: cell-based
Description: The cationic lipid compound YK-407 synthesized in Example 1 was dissolved in ethanol with DSPC (AVT (Shanghai) Pharmaceutical Technology Co., Ltd.), cholesterol (AVT (Shanghai) Pharmaceutical Technology Co., Ltd.) and DMG-PEG2000 according to a molar ratio of 49:10:39.5:1.5, respectively, to prepare an ethanol lipid solution. The ethanol lipid solution was quickly added to citrate buffer (pH=4-5) by ethanol injection method, and vortexed for 30s for later use. eGFP-mRNA was diluted in citrate buffer (pH=4-5) to give an aqueous mRNA solution. A certain volume of liposome solution and mRNA aqueous solution were used to prepare liposomes at weight ratios of total lipids to mRNA of 5:1, 10:1, 15:1, 20:1, 30:1 and 35:1, respectively. The mixtures were sonicated at 25° C. for 15 min (with an ultrasonic frequency of 40 kHz and an ultrasonic power of 800 W). The resulted liposomes were diluted to 10 times volume with PBS, and then ultrafiltered with a 300KDa ultrafiltration tube to remove ethanol. Then the volume was fixed to a certain volume with PBS to give an LNP formulation encapsulating eGFP-mRNA using cationic lipid YK-407/DSPC/cholesterol/DMG-PEG2000 (49:10:39.5:1.5 in molar percentage).
The LNP formulation encapsulating eGFP-mRNA was prepared according to the method in 1, wherein the molar ratios of cationic lipid YK-407 to neutral lipid DSPC were 1:1, 3:1, 3.5:1, 4:1, 4.5:1, 4.9:1, 10:1, 15:1 and 20:1.
The LNP formulation encapsulating eGFP-mRNA was prepared according to the method in 1, wherein the cationic lipid in the carrier was YK-407, and the molar ratios of the polymer-conjugated lipid DMG-PEG2000 to the carrier were 0.5%, 1.5%, 3.5%, 5%, 10% and 15%, respectively.
The LNP formulation encapsulating eGFP-mRNA was prepared according to the method in 1, wherein the molar ratios of cationic lipid YK-407, neutral lipid DSPC, structured lipid cholesterol and polymer-conjugated lipid DMG-PEG2000 were 75:5:15:5, 49:10:39.5:1.5, 45:10:43.5:1.5, 45:25:20:10, 40:10:48.5:1.5, 35:10:53.5:1.5 and 25:5:65:5, respectively.
Cell recovery and passage: 293T cells were recovered, cultured in a culture dish, and passaged to the required number of cells.
Seeding plate: The cells in the culture dish were digested and counted. Cells were spread in a 96-well plate at 10,000 cells per well and in a 12-well plate at 150,000 cells per well. Cells were cultured overnight until the cells adhered to the wall.
Cell transfection test: The LNP formulation containing 1.5 μg of eGFP-mRNA prepared in Example 2 (the cationic lipid in the carrier was YK-407) and the Lipofectamin 3000 formulation of eGFP-mRNA were added respectively to the cell culture medium of the 12-well plate, and further incubated for 24 hours. The transfection efficiency of different samples was then investigated according to the fluorescence intensity by observing with a fluorescence microscope.

293T cells [5] = test: Cell survival rate assay (CCK-8); format: cell-based
Procedure, shortened: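 293T cells seeded at 10,000 cells/well, cultured overnight, then exposed 24 h to LNP carrying 1.5 μg Fluc-mRNA (cationic:neutral:structured:PEG-type lipid 49:10:39.5:1.5) or Lipofectamine 3000. Viability read by CCK-8, 1 h incubation, absorbance at 450 nm.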

For `CCCCCCCCC(CCCCCCCC)COC(=O)CCCCCN(CCCO)CCN(CCCO)CCCCCC(=O)OCC(CCCCCCCC)CCCCCCCC` [YK-422, di(2-octyldecyl) 6,6′-(ethane-1,2-diyl-bis((3-hydroxypropyl)azanediyl))dihexanoate], the PDI ([1]; LNP formulation of the cationic lipid, 25° C.) was 13.9%, the Particle size ([1]; LNP formulation of the cationic lipid/DSPC/cholesterol/DMG-PEG2000 49:10:39.5:1.5, 25° C.) was 146 nm and the “Relative light unit (RLU)” value (293T cells [2]; LNP with 0.3 μg Fluc-mRNA, 96-well plate, 24 hours) was 6432971 RLU. For the same compound, the “cell transfection efficiency, times that of YK-415” value (293T cells [2]; ratio vs YK-415) was 21.59, the “cell transfection efficiency, times that of YK-417” value (293T cells [2]; ratio vs YK-417) was 54.85 and the “cell transfection efficiency, times that of YK-418” value (293T cells [2]; ratio vs YK-418) was 57.82. For the same compound, the “cell transfection efficiency, times that of YK-424” value (293T cells [2]; ratio vs YK-424) was 2.23, the “RLU value, times that of compound 21” value (293T cells [2]; ratio vs compound 21) was 4.26 and the “RLU value, times that of compound 23” value (293T cells [2]; ratio vs compound 23) was 4.59. The “RLU value, times that of ALC-0315” value (293T cells [3]; ratio vs ALC-0315) was 2.94, the “RLU value, times that of HHMA” value (293T cells [3]; ratio vs HHMA) was 3.09 and the “RLU value, times that of Lipofectamine 3000” value (293T cells [3]; ratio vs Lipofectamine 3000) was 5.36. The “RLU value, times that of YK-009” value (293T cells [3]; ratio vs YK-009) was 1.25, the “RLU value, times that of YK-405” value (293T cells [3]; ratio vs YK-405) was 2.01 and the “RLU value, times that of YK-406” value (293T cells [3]; ratio vs YK-406) was 82.21. The “RLU value, times that of YK-408” value (293T cells [3]; ratio vs YK-408) was 4.36, the “RLU value, times that of YK-409” value (293T cells [3]; ratio vs YK-409) was 9.60 and the “RLU value, times that of YK-410” value (293T cells [3]; ratio vs YK-410) was 15.77. For the same compound, the “cell transfection efficiency, times that of YK-412” value (293T cells [3]; ratio vs YK-412) was 1.91, the “cell transfection efficiency, times that of YK-413” value (293T cells [3]; ratio vs YK-413) was 4.67 and the “cell transfection efficiency, times that of YK-414” value (293T cells [3]; ratio vs YK-414) was 14.49. For the same compound, the “cell transfection efficiency, times that of YK-416” value (293T cells [3]; ratio vs YK-416) was 1.62, the “cell transfection efficiency, times that of YK-419” value (293T cells [3]; ratio vs YK-419) was 2.03 and the “cell transfection efficiency, times that of YK-420” value (293T cells [3]; ratio vs YK-420) was 1.60. The “cell transfection efficiency, times that of YK-421” value (293T cells [3]; ratio vs YK-421) was 13.79, the “transfection efficiency at different molar ratios of polymer-conjugated lipid DMG-PEG2000 to carrier” value (293T cells [4]; 0.5% to 15%) was “same results” and the “transfection effect at different molar ratios of cationic lipid, neutral lipid, structured lipid and polymer-conjugated lipid” value (293T cells [4]; 75:5:15:5 to 25:5:65:5) was “same results”. For the same compound, the Cell survival rate (293T cells [5]; LNP with 1.5 μg Fluc-mRNA, 24 hours, CCK-8) was 70.48%, the “cell survival rate higher than ALC-0315” value (293T cells [5]; difference vs ALC-0315) was 23.27% and the “cell survival rate higher than HIMA” value (293T cells [5]; difference vs HIMA (HHMA)) was 6.21%. The “cell survival rate higher than Lipofectamine 3000” value (293T cells [5]; difference vs Lipofectamine 3000) was 48.82%, the “cell survival rate higher than SM-102” value (293T cells [5]; difference vs SM-102) was 2.58% and the “cell survival rate higher than YK-404” value (293T cells [5]; difference vs YK-404) was 28.36%. For the same compound, the “cell survival rate higher than YK-405” value (293T cells [5]; difference vs YK-405) was 28.62%, the “cell survival rate higher than YK-406” value (293T cells [5]; difference vs YK-406) was 45.52% and the “cell survival rate higher than YK-408” value (293T cells [5]; difference vs YK-408) was 28.17%. For the same compound, the “cell survival rate higher than YK-409” value (293T cells [5]; difference vs YK-409) was 24.37%, the “cell survival rate higher than YK-410” value (293T cells [5]; difference vs YK-410) was 25.56% and the “cell survival rate higher than YK-411” value (293T cells [5]; difference vs YK-411) was 54.15%. The “cell survival rate higher than YK-412” value (293T cells [5]; difference vs YK-412) was 16.34%, the “cell survival rate higher than YK-413” value (293T cells [5]; difference vs YK-413) was 23.28% and the “cell survival rate higher than YK-414” value (293T cells [5]; difference vs YK-414) was 41.73%. For the same compound, the “cell survival rate higher than YK-415” value (293T cells [5]; difference vs YK-415) was 9.32%, the “cell survival rate higher than YK-416” value (293T cells [5]; difference vs YK-416) was 29.51% and the “cell survival rate higher than YK-417” value (293T cells [5]; difference vs YK-417) was 49.14%. The “cell survival rate higher than YK-418” value (293T cells [5]; difference vs YK-418) was 49.43%, the “cell survival rate higher than YK-419” value (293T cells [5]; difference vs YK-419) was 31.56% and the “cell survival rate higher than YK-420” value (293T cells [5]; difference vs YK-420) was 34.89%. The “cell survival rate higher than YK-421” value (293T cells [5]; difference vs YK-421) was 34.77%, the “cell survival rate higher than YK-424” value (293T cells [5]; difference vs YK-424) was 42.55% and the “cell survival rate higher than compound 21” value (293T cells [5]; difference vs compound 21) was 2.64%. For the same compound, the “cell survival rate higher than compound 23” value (293T cells [5]; difference vs compound 23) was 1.37% and the “cytotoxicity reduced compared with YK-411” value (293T cells [5]; rounded summary statement vs YK-411) was 50%.
